Reference: patent US20100261765A1, “MINERALOCORTICOID RECEPTOR MODULATORS” (priority 2007, published 2010)
Like-named read-outs stand apart in the source and are kept apart here.

Legend:
[1] = molecular target: T1, Cav1.2 (Homo sapiens, UniProt Q13936); experiment: Calcium channel block, FLIPR TETRA fluorescence assay in HEK293 cells expressing L-type calcium channels; type: cell-based; conditions: pH 7.2, 25 mM potassium; for inhibition at 30 min, 0.3 μM: 0.3 μM compound, read-out: FLIPRIETRA Cav1.2 % Inhibition 0.3 μM; for inhibition at 30 min, 1 μM: 1 μm compound, read-out: FLIPRIETRA Cav1.2 % Inhibition 1 μm; for inhibition at 30 min, 3 μM: 3 μm compound, read-out: FLIPRIETRA Cav1.2 % Inhibition 3 μm; for inhibition at 30 min, 10 μM: 10 μm compound, read-out: FLIPRIETRA Cav1.2 % Inhibition 10 μm; for inhibition at 30 min, 30 μM: 30 μm compound, read-out: FLIPRIETRA Cav1.2 % Inhibition 30 μm
T1 construct: expressed in transfected cells; host or cells: HEK293 cell line (Xia, et al., 2004) also expressing Kir2.3
Description: Measurement of Calcium Channel Block
A high-throughput fluorescence assay for state-dependent block of L-type channels was established as a counterscreen for blockers of N-type calcium channels. […] This allows the cell membrane potential to be preset during compound incubation, which can be used to assay state-dependent channel block. Running the assay in the presence of high potassium (25 mM) sets the membrane potential to a value (−35 mV) at which approximately half of the calcium channels are inactivated and some are open. This condition favors block by many L-type calcium channel blockers that lower blood pressure, including dihydropyridines, phenylalkylamines and benzothiazepines.
Initially, the compounds were incubated in 0.005 μM calcium and 25 mM potassium for 30 minutes. Calcium influx was triggered by buffer addition that raises the calcium concentration to 2 mM while maintaining the potassium concentration at 25 mM. Changes in intracellular calcium were then monitored using a calcium-sensitive fluorescent dye (fluo-4) and a FLIPR^TETRA plate reader.
The following experimental protocol was used:
1. Cells were seeded in a Poly-D-Lysine Coated 384-well plate (50 μl/well) and incubated overnight at 37° C. under 10% CO2;
4. Cells were then incubated in the dark at 25° C. for 30 minutes;
5. […] 25 mM KCl, 0.005 mM CaCl2, 1.7 mM MgCl2, 10 HEPES, pH=7.2;
6. 0.025 ml of 25 mM K PPB was then added, with or without the presence of a test compound;
7. Cells incubated in the dark at 25° C. for 30 min
8. Cell plates are then read on the FLIPR^TETRA instrument, Excitation=480 nm, Emission=535 nm;

[2] = molecular target: T2, recombinant rhesus mineralocorticoid receptor (Macaca mulatta, UniProt A0A5F8ATS5); experiment: Mineralocorticoid receptor binding affinity, [3H]-aldosterone filter binding assay
T2 construct: made in house; host or cells: insect cells infected with recombinant baculovirus; clarified lysate used
T2 sequence (A0A5F8ATS5 1-984): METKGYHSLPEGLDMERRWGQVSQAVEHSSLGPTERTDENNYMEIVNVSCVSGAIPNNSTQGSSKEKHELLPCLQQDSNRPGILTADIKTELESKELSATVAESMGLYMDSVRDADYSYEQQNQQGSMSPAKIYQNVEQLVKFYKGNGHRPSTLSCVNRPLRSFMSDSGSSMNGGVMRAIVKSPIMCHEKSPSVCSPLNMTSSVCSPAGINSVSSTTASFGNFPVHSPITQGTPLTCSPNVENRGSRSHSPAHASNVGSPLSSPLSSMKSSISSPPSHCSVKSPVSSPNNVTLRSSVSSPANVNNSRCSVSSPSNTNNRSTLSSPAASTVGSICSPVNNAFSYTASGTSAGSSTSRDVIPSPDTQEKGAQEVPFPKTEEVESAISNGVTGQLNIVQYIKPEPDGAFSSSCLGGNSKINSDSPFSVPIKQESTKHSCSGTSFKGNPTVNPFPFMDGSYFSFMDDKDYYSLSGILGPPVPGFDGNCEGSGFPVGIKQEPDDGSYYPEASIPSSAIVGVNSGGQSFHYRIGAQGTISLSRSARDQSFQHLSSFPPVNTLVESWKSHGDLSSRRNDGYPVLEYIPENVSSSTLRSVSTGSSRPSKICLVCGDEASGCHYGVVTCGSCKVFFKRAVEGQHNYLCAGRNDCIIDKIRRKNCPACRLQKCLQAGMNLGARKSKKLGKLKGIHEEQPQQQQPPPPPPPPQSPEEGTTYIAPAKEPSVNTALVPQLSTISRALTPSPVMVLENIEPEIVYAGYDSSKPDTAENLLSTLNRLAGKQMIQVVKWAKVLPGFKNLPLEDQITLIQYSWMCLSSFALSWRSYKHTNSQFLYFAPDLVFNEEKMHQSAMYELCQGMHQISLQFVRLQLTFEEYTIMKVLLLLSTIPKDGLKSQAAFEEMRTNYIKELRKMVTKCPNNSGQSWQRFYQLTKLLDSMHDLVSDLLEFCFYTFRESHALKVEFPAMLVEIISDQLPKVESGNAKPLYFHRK
Description: Measurement of Mineralocorticoid Receptor Binding Affinity
The binding affinity of compounds for the mineralocorticoid receptor was determined by measuring their ability to prevent binding of radiolabeled aldosterone to recombinant rhesus mineralocorticoid receptor in a traditional filter binding assay protocol.
Rhesus mineralocorticoid receptor cDNA was cloned from a cDNA library using and used to prepare a recombinant baculovirus encoding the rhesus mineralocorticoid receptor coding sequence by standard molecular biological and cell biological methods. […] Cells were collected and lysed. The lysates were clarified by centrifugation and stored at −80 C until use in the radioligand binding assay.
[^3H]-Aldosterone (1 mCi/ml, 70-100 Ci/mmol) was purchased from Perkin Elmer (NET419). Test compounds were dissolved in DMSO and diluted in DMSO to 50 times the desired final concentrations for 3-fold serial dilution dose response curves. […] The insect cell lysate containing rhesus mineralocorticoid receptor was thawed and diluted to 0.7 mg protein/mL. Assay were started by combining 20 μL of test compound solution, 920 μL of diluted insect cell lysate, and 60 μL of [^3H]-aldosterone working solution in 2-mL 96-well polypropylene square well plates (USA Scientific) at 20° C. The mixture was incubated for 3 hr with continuous agitation on a platform shaker. […] The filter plate was washed 3 times with 0.5 mL of 50 mM Tris-HCl, pH 7.4 and then dried overnight at 37° C. in a vacuum oven. […] Non-specific radioligand binding was determined by adding non-radiolabeled aldosterone (0.5 mM in DMSO) to the assay mixture to a final concentration of 10 μM in place of test compound. IC50 and Ki values were determined using a four parameter logistic fit using a customized assay data analyzer software package.

[3] = test system: patients suffering from advanced CHF; conditions: in combination with standard CHF therapy; cited from earlier work
[4] = average of Rep#1 and Rep#2, read-out: MRBIND Ki (nM) Average
[5] = replicate 1, read-out: MRBIND Ki (nM) Rep#1
[6] = replicate 2, read-out: MRBIND Ki (nM) Rep#2

T1 sequence (Q13936 whole entry): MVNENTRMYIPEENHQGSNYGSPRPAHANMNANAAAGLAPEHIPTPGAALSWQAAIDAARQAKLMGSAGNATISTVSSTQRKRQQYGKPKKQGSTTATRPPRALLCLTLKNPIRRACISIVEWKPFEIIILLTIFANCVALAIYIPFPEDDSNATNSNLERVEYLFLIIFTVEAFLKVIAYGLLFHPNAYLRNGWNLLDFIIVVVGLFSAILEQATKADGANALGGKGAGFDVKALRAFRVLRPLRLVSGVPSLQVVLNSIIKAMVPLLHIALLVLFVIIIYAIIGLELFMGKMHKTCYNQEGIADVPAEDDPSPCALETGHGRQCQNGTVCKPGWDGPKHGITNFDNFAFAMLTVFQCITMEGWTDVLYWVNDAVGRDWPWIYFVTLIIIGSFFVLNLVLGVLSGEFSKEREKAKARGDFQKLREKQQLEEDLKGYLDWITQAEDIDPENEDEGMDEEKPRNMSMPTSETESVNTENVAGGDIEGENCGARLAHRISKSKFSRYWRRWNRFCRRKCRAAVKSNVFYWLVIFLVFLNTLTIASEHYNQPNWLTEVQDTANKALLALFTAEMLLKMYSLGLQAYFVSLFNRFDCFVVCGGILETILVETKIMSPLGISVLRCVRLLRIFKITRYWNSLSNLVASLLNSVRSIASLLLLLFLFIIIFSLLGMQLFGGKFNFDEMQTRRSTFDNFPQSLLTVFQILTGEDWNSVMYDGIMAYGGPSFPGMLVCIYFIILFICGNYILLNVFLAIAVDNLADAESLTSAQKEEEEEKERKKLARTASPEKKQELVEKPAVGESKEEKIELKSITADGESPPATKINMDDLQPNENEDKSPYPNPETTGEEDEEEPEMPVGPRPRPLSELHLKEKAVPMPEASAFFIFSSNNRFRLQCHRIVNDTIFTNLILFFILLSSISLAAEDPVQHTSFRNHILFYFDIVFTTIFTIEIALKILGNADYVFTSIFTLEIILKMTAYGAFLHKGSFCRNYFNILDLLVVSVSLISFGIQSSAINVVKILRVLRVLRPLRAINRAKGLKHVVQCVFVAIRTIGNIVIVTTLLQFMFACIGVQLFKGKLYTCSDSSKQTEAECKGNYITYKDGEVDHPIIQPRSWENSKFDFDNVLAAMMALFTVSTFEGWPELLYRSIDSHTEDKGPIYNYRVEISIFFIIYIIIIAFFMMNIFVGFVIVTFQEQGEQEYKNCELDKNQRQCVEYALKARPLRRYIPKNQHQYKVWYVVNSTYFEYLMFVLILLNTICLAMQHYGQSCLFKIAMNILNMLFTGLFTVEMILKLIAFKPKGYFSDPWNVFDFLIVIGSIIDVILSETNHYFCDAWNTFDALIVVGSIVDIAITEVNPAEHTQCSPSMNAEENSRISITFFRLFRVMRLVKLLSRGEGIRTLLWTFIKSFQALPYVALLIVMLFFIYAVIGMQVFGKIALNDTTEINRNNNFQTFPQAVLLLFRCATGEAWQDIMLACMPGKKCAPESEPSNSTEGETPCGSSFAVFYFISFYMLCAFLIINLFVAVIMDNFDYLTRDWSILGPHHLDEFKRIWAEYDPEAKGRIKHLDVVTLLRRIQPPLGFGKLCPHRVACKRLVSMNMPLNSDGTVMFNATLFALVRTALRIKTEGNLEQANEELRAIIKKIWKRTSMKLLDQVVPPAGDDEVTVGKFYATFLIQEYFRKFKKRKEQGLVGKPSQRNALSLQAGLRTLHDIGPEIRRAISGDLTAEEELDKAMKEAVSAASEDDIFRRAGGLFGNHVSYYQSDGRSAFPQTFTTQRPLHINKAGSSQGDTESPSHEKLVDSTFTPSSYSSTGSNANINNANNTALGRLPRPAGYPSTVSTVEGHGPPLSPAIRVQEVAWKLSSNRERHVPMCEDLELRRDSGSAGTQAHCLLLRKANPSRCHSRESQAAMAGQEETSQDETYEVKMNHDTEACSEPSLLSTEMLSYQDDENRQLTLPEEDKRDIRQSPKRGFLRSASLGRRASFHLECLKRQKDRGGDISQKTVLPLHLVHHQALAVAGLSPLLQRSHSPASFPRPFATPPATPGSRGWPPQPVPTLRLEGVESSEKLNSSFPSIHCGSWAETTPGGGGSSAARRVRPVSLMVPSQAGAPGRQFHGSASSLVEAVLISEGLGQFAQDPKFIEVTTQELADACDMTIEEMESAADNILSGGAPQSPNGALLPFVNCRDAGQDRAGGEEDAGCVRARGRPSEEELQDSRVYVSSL
T1 sequence (P54289 25-946 partner limits assumed): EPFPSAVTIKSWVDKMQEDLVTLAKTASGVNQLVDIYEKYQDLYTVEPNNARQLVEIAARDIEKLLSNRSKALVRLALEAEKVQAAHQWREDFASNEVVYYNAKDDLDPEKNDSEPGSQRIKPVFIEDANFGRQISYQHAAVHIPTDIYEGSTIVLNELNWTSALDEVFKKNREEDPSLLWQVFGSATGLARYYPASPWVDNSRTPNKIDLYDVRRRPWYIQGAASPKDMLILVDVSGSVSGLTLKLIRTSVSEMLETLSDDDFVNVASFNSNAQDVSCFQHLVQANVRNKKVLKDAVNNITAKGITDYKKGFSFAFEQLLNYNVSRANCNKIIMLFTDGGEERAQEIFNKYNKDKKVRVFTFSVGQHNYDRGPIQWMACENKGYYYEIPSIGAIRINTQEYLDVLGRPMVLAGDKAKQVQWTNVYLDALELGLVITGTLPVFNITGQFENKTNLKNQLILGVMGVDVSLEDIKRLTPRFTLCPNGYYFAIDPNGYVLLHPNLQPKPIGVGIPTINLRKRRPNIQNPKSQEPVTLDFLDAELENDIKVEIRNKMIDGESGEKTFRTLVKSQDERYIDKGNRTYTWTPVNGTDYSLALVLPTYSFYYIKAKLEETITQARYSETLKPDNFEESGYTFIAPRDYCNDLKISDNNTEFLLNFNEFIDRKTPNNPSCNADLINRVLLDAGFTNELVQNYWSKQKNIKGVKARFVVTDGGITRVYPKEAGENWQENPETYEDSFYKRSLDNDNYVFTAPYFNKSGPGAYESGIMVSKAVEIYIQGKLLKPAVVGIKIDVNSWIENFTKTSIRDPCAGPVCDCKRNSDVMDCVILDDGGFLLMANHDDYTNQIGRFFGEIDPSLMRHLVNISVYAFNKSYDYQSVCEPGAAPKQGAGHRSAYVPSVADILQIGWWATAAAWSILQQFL
T1 sequence (P54289 947-1103 partner limits assumed): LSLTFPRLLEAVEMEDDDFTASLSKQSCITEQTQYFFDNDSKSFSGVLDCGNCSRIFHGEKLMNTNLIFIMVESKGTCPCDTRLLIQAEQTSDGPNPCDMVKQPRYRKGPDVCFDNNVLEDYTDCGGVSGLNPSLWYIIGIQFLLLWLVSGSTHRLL
T1 sequence (Q08289 whole entry partner): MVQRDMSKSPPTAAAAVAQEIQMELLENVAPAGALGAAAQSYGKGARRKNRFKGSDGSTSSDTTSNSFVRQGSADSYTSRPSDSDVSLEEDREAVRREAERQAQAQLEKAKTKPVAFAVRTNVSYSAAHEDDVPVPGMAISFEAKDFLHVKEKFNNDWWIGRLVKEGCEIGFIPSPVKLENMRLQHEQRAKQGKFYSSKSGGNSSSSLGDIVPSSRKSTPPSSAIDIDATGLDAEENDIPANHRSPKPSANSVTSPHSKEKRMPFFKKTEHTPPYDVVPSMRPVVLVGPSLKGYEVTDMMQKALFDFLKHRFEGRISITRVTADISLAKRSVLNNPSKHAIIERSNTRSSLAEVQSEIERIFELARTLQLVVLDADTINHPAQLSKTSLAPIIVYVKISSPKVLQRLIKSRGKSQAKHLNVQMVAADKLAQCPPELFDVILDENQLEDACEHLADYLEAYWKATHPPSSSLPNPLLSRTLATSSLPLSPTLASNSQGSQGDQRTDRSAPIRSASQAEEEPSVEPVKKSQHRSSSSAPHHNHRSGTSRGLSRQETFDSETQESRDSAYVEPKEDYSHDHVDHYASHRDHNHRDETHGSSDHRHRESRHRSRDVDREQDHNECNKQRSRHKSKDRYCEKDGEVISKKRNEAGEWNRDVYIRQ

| Compound | Ki [2, 4] | Ki [2, 5] | Ki [2, 6] | inhibition at 30 min, 0.3 μM [1] | inhibition at 30 min, 1 μM [1] | inhibition at 30 min, 3 μM [1] | inhibition at 30 min, 10 μM [1] | inhibition at 30 min, 30 μM [1] | reduction of cardiac related mortality [3] | reduction of frequency of hospitalization [3] |
| --- | --- | --- | --- | --- | --- | --- | --- | --- | --- | --- |
| CCOc1ccccc1C1C(C#N)=C(SC)NC(C)=C1C(=O)Nc1ccccc1 (centres unmarked) [5-cyano-4-(2-ethoxyphenyl)-2-methyl-6-(methylthio)-N-phenyl-1,4-dihydropyridine-3-carboxamide] | 1390 nM | 1140 nM | 1650 nM | 4% | 26% | 55% | 82% |  |  |  |
| C=CCOC(=O)C1=C(C)NC(C)=C(C(=O)OCC=C)C1c1cccc([N+](=O)[O-])c1 [diallyl 2,6-dimethyl-4-(3-nitrophenyl)-1,4-dihydropyridine-3,5-dicarboxylate] | 462 nM | 472 nM | 453 nM | 81% | 83% | 82% | 81% |  |  |  |
| CCOC(=O)C1=C(C)NC(C)=C(C(=O)OCC)C1c1ccc([N+](=O)[O-])cc1 [diethyl 2,6-dimethyl-4-(4-nitrophenyl)-1,4-dihydropyridine-3,5-dicarboxylate] | 219 nM | 184 nM | 254 nM | 25% | 43% | 59% | 76% |  |  |  |
| C=Cc1ccccc1C1C(C(=O)OC)=C(C)NC(C)=C1C(=O)OC [dimethyl 2,6-dimethyl-4-(2-vinylphenyl)-1,4-dihydropyridine-3,5-dicarboxylate] | 489 nM | 570 nM | 408 nM | 74% | 74% | 78% | 87% |  |  |  |
| COC(=O)C1=C(C)NC(C)=C(C(=O)OC)C1c1cccc(Cl)c1Cl [dimethyl 4-(2,3-dichlorophenyl)-2,6-dimethyl-1,4-dihydropyridine-3,5-dicarboxylate] | 375 nM | 382 nM | 368 nM | 73% | 75% | 77% | 78% | 84% |  |  |
| COC(=O)C1=C(C)NC(C)=C(C(=O)OC)C1c1ccc(Cl)c(Cl)c1 [dimethyl 4-(3,4-dichlorophenyl)-2,6-dimethyl-1,4-dihydropyridine-3,5-dicarboxylate] | 203 nM | 83 nM | 324 nM | 34% | 59% | 77% | 87% | 89% |  |  |
| CC(=O)S[C@@H]1CC2=CC(=O)CC[C@]2(C)[C@H]2CC[C@@]3(C)[C@@H](CC[C@@]34CCC(=O)O4)[C@H]12 [spironolactone] |  |  |  |  |  |  |  |  | 30% | 33% |

Now from value to molecule, other results behind:

| Ki [2, 4] | Ki [2, 5] | Ki [2, 6] | Compound | inhibition at 30 min, 0.3 μM [1] | inhibition at 30 min, 1 μM [1] | inhibition at 30 min, 3 μM [1] | inhibition at 30 min, 10 μM [1] | inhibition at 30 min, 30 μM [1] | reduction of cardiac related mortality [3] | reduction of frequency of hospitalization [3] |
| --- | --- | --- | --- | --- | --- | --- | --- | --- | --- | --- |
| 53 nM | 90 nM | 16 nM | CCSC1=C(C#N)C(c2ccccc2Cl)C(C(=O)Nc2ccccc2OC)=C(C)N1 (centres unmarked) [4-(2-chlorophenyl)-5-cyano-6-(ethylthio)-N-(2-methoxyphenyl)-2-methyl-1,4-dihydropyridine-3-carboxamide] | 41% | 83% | 92% | 98% | 104% |  |  |
| 193 nM | 250 nM | 137 nM | COc1ccccc1NC(=O)C1=C(C)NC(SC)=C(C#N)C1c1ccccc1Cl (centres unmarked) [4-(2-chlorophenyl)-5-cyano-N-(2-methoxyphenyl)-2-methyl-6-(methylthio)-1,4-dihydropyridine-3-carboxamide] | -3% | 14% | 35% | 74% |  |  |  |
| 14.9 nM | 11.6 nM | 18.2 nM | CCCSC1=C(C#N)C(c2ccccc2Cl)C(C(=O)Nc2ccccc2OC)=C(C)N1 (centres unmarked) [4-(2-chlorophenyl)-5-cyano-N-(2-methoxyphenyl)-2-methyl-6-(propylthio)-1,4-dihydropyridine-3-carboxamide] | 31% | 69% | 90% | 96% | 102% |  |  |
| 61 nM | 69 nM | 53 nM | COC(=O)C1=C(C)NC(C)=C(C(=O)OC)C1c1cccc2ccccc12 [Dimethyl 2,6-dimethyl-4-(1-naphthyl)-1,4-dihydropyridine-3,5-dicarboxylate] | 80% | 88% | 94% | 100% | 104% |  |  |
| 37.3 nM | 23.6 nM | 51 nM | CCCC1=C(C(=O)OCC)C(c2ccccc2Cl)C(C#N)=C(SC)N1 (centres unmarked) [ethyl 4-(2-chlorophenyl)-5-cyano-6-(methylthio)-2-propyl-1,4-dihydropyridine-3-carboxylate] | 53% | 73% | 74% | 80% |  |  |  |
| 114 nM | 77 nM | 152 nM | CCOC(=O)C1=C(C)NC(C)=C(C(=O)OC(C)C)C1c1ccc([N+](=O)[O-])cc1 (centres unmarked) [ethyl isopropyl 2,6-dimethyl-4-(4-nitrophenyl)-1,4-dihydropyridine-3,5-dicarboxylate] | 28% | 49% | 63% | 73% | 86% |  |  |
